Legend:
[1] = target: T1, 5-hydroxytryptamine receptor 1A (Homo sapiens, UniProt P08908); assay: Displacement of [3H]8-OH-DPAT from recombinant human 5HT1A receptor expressed in CHO cells; type: cell-based
T1 sequence (P08908 whole entry): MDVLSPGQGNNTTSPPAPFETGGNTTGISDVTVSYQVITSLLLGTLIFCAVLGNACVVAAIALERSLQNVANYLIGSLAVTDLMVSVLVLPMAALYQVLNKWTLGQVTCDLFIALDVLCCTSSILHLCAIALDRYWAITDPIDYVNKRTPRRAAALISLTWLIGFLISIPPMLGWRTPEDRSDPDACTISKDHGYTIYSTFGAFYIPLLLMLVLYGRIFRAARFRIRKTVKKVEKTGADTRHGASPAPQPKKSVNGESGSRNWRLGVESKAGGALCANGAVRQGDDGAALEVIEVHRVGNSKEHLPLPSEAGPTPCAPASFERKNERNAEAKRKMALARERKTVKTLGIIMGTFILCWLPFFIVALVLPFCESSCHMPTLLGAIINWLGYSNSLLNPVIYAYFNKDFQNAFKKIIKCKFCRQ

[2] = target: Serotonin 3 (5-HT3) receptor; assay: Inhibitory activity against 5HT3 receptor; type: protein-complex assay, Homo sapiens
[3] = target: Sodium-dependent noradrenaline transporter (Homo sapiens, UniProt P23975); assay: Inhibitory activity against NET
Chain of Sodium-dependent noradrenaline transporter (P23975 whole entry): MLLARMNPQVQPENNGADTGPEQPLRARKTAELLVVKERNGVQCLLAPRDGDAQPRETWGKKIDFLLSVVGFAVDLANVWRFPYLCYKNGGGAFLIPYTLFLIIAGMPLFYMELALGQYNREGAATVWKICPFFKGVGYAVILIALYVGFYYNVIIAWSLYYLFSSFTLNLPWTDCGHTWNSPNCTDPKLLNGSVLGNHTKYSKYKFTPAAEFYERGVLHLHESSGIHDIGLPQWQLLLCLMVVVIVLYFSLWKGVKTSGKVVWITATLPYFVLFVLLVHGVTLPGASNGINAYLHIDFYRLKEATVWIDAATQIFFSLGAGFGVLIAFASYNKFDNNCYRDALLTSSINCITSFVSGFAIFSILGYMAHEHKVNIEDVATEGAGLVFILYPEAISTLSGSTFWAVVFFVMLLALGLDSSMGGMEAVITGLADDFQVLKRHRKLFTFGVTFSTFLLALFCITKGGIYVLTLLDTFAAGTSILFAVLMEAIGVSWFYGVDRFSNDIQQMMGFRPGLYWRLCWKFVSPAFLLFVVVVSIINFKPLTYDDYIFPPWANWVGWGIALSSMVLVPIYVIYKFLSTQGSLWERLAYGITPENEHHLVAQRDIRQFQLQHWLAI

[4] = target: Platelet-activating factor receptor (Homo sapiens) (UniProt P25105); assay: Inhibition of PAF at 1 nM
Chain of Platelet-activating factor receptor (Homo sapiens) (P25105 whole entry): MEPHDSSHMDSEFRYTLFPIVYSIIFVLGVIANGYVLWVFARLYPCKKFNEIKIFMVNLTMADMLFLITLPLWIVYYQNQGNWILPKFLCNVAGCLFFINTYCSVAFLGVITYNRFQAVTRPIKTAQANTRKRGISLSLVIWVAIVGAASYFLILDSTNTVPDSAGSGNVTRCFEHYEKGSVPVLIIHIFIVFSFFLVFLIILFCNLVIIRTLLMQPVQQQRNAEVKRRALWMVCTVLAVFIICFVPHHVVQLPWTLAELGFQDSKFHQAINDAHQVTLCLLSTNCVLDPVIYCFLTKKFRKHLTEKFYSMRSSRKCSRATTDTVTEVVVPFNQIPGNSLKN

[5] = Inhibitory activity at TBOB site in GABA gated chloride channel at 1 nM
[6] = target: Glutamate [NMDA] receptor (Homo sapiens) (UniProt Q05586+Q12879+Q13224+O15399+O60391+Q14957+Q8TCU5); assay: Inhibition of agonist site of NMDA receptor at 100 nM; type: functional
[7] = Inhibition of non selective binding to VIP at 10 uM
[8] = target: T2, Cysteinyl leukotriene receptor 1 (Homo sapiens) (UniProt Q9Y271); assay: Inhibition of leukotriene D4 at 1 nM
T2 sequence (whole entry): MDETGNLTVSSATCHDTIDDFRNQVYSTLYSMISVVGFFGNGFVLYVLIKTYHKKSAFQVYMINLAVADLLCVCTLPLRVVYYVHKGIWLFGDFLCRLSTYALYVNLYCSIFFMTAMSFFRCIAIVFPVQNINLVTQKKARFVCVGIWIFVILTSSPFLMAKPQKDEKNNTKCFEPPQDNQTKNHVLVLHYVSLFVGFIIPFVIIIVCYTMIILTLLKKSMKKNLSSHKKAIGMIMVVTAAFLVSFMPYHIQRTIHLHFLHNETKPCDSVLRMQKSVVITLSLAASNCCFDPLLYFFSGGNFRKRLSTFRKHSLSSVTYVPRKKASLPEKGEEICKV

[9] = target: T3, B2 bradykinin receptor (Homo sapiens) (UniProt P30411); assay: Inhibition of bradykinin 2 receptor at 10 uM
T3 sequence (whole entry): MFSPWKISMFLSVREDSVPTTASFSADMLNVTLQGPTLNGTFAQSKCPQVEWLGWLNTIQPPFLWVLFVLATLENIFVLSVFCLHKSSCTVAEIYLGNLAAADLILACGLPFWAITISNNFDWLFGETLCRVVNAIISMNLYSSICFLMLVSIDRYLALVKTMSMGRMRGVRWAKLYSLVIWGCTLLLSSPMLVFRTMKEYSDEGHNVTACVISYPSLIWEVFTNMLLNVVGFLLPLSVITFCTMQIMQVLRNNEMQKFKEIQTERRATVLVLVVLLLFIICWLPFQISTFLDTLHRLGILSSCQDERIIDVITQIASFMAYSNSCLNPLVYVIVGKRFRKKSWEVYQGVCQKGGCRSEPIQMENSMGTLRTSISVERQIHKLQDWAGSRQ

[10] = target: GABA-A receptor; benzodiazepine site (Homo sapiens) (UniProt P14867+P18507+P48169+Q99928+P34903+Q8N1C3+P47869+P31644+Q16445); assay: Inhibition of central benzodiazepine site on GABAA receptor at 1 nM; type: protein-complex assay
[11] = target: T4, Alpha-2A adrenergic receptor (Homo sapiens, UniProt P08913); assay: Activity at adrenergic alpha2A receptor expressed in human clonic adenocarcinoma HT29 cell by […]; type: functional, cell-based, HT-29
T4 sequence (P08913 whole entry): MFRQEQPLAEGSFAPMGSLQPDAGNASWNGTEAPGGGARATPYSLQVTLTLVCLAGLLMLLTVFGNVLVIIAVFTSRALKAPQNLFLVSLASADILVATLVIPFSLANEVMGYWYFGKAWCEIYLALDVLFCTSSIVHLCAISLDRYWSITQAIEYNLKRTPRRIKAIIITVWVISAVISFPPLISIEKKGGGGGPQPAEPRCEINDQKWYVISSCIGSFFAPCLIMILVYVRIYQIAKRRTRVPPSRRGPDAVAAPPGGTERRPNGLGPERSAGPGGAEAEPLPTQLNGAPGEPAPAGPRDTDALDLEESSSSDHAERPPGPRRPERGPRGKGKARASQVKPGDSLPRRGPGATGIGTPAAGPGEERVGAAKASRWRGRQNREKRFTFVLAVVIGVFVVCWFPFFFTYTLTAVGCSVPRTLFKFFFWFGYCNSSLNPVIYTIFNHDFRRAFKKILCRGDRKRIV

Homo sapiens = species: Homo sapiens; assay: Inhibition of inositol triphosphate IP3 at 100 nM; type: functional
[12] = target: Estrogen receptor (Homo sapiens) (UniProt Q92731+P03372); assay: Inhibition of estrogen receptor at 1 nM; type: protein assay
[13] = target: T4, Alpha-2A adrenergic receptor; assay: Displacement of [3H]clonidine from cloned human adrenergic alpha2A receptor expressed in Sf9 cells
[14] = target: GABA-A receptor; agonist GABA site (Homo sapiens) (UniProt P14867+P47870+P28472+P48169+P34903+P18505+P47869+P31644+Q16445); assay: Inhibition of agonist site of GABAA receptor at 1 nM; type: functional
[15] = target: 5-hydroxytryptamine receptor 6 (Homo sapiens, UniProt P50406); assay: Inhibitory activity against 5HT6 receptor
Chain of 5-hydroxytryptamine receptor 6 (P50406 whole entry): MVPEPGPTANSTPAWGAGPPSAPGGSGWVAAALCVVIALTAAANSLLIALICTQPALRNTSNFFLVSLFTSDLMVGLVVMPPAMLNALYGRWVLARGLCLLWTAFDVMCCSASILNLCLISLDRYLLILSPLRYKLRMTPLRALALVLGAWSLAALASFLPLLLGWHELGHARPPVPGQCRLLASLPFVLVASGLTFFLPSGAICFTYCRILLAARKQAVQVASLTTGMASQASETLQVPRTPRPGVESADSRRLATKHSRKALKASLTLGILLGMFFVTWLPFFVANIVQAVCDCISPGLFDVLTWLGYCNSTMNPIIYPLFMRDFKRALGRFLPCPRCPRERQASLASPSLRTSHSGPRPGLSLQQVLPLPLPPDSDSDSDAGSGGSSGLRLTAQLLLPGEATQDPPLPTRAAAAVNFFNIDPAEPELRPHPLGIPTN

[16] = target: T5, Endothelin-1 receptor (Homo sapiens) (UniProt P25101); assay: Inhibition of human recombinant endothelin 1 receptor at 100 nM
T5 sequence (whole entry): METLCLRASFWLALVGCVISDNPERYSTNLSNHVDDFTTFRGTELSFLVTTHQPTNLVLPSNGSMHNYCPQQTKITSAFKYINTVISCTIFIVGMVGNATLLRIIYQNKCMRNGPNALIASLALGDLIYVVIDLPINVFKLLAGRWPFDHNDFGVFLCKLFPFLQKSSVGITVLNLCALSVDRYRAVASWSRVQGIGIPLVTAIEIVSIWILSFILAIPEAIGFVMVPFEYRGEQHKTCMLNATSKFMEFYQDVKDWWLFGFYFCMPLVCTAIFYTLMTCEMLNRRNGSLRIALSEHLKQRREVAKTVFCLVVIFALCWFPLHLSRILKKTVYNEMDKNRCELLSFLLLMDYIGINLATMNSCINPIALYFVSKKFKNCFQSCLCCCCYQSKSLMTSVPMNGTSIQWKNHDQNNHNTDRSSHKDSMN

Question: Which results are given for `C[C@H](N)Cn1ncc2ccc(O)cc21`?
Answer: Ki [1]: 141 nM; Ki [2]: > 10000 nM; Ki [3]: > 10000 nM; inhibition [4]: -6.53%; inhibition [5]: -3.75%; inhibition [6]: 15.7%; inhibition [7]: -5.59%; inhibition [8]: 2.65%; inhibition [9]: 0.11%; inhibition [10]: 19.6%; EC50 [11]: 2600 nM; inhibition (Homo sapiens): 8.56%; inhibition [12]: 10.8%; Ki [13]: 2270 nM; inhibition [14]: 15.2%; Ki [15]: > 10000 nM; inhibition [16]: 2.04%

From ChEMBL document CHEMBL1148572, “1-((S)-2-aminopropyl)-1H-indazol-6-ol: a potent peripherally acting 5-HT2 receptor agonist with ocular hypotensive activity” (J Med Chem, 2006)
